Results reported in ChEMBL document CHEMBL6109057, “Synthesis of harmaline N-9 derivatives and investigation of in vitro anticancer activity” (Bioorg Med Chem Lett, 2025).
The source made the active and inactive calls. The calls are words filed in the database; no cut-off is given here.

Assays:
HCT-116 [1] = test: Antiproliferative activity against human HCT-116 cells assessed as reduction in cell viability at 50 uM measured after 24 hrs; type: functional, cell-based
MGC-803 [2] = test: Antiproliferative activity against human MGC-803 cells assessed as reduction in cell viability at 50 uM measured after 24 hrs; type: functional, cell-based
MCF7 [3] = test: Antiproliferative activity against human MCF7 cells assessed as reduction in cell viability at 50 uM measured after 24 hrs; type: functional, cell-based
HCT-116 [4] = test: Antiproliferative activity against human HCT-116 cells assessed as cell viability at 50 uM measured after 24 hrs relative to control; type: functional; details: read-out: Activity
MGC-803 [5] = test: Antiproliferative activity against human MGC-803 cells assessed as cell viability at 50 uM measured after 24 hrs relative to control; type: functional; details: read-out: Activity
MCF7 [6] = test: Antiproliferative activity against human MCF7 cells assessed as cell viability at 50 uM measured after 24 hrs relative to control; type: functional; details: read-out: Activity
HCT-116 [7] = test: Antiproliferative activity against human HCT-116 cells assessed as reduction in cell viability measured after 24 hrs; type: functional, cell-based; details: HCT-116, 24 h
MGC-803 [8] = test: Antiproliferative activity against human MGC-803 cells assessed as reduction in cell viability measured after 24 hrs; type: functional, cell-based; details: MGC-803, 24 h
MCF7 [9] = test: Antiproliferative activity against human MCF7 cells assessed as reduction in cell viability measured after 24 hrs; type: functional, cell-based; details: MCF7, 24 h
[10] = Cytotoxicity against HEK293FT cells assessed as reduction in cell viability measured after 24 hrs; type: toxicity, cell-based; details: human
MGC-803 [11] = test: Antimigratory activity against human MGC-803 cells assessed as migration rate at 2.5 uM measured after 24 hrs scratch assay (reference value: 40.72 +/- 0.86%); type: functional
MGC-803 [12] = test: Antimigratory activity against human MGC-803 cells assessed as migration rate at 5 uM measured after 24 hrs scratch assay (reference value: 40.72 +/- 0.86%); type: functional
MGC-803 [13] = test: Antimigratory activity against human MGC-803 cells assessed as increase in number of floating cells at 10 uM measured after 24 hrs by scratch assay; type: functional, cell-based
MGC-803 [14] = test: Antimigratory activity against human MGC-803 cells assessed as increase in aggregated dead cells at 10 uM measured after 24 hrs by scratch assay; type: functional, cell-based
MGC-803 [15] = test: Antimigratory activity against human MGC-803 cells assessed as migration rate at 2.5 uM measured after 48 hrs scratch assay (reference value: 63 +/- 1.61%); type: functional
MGC-803 [16] = test: Antimigratory activity against human MGC-803 cells assessed as migration rate at 5 uM measured after 48 hrs scratch assay (reference value: 63 +/- 1.61%); type: functional
MGC-803 [17] = test: Antimigratory activity against human MGC-803 cells assessed as increase in large number of dead cells at 10 uM measured after 48 hrs by scratch assay; type: functional, cell-based
[18] = Inhibition of cell clone formation in human MGC-803 cells assessed as percentage of area of cell clones at 1 uM (reference value: 1 +/- 0.02%); type: functional; parameters: scale not given: the % may be the effect or the level left
[19] = Inhibition of cell clone formation in human MGC-803 cells assessed as percentage of area of cell clones at 1.5 uM (reference value: 1 +/- 0.02%); type: functional; parameters: scale not given: the % may be the effect or the level left
[20] = Inhibition of cell clone formation in human MGC-803 cells assessed as percentage of area of cell clones at 2.5 uM (reference value: 1 +/- 0.02%); type: functional; parameters: scale not given: the % may be the effect or the level left
MGC-803 [21] = test: Effect on metabolic changes in human MGC-803 cells assessed as upregulation of leucine level at 4 uM by 1H-NMR analysis; type: functional, cell-based
MGC-803 [22] = test: Effect on metabolic changes in human MGC-803 cells assessed as upregulation of glycine level at 4 uM by 1H-NMR analysis; type: functional, cell-based
MGC-803 [23] = test: Effect on metabolic changes in human MGC-803 cells assessed as down regulation of taurine level at 4 uM by 1H-NMR analysis; type: functional, cell-based
MGC-803 [24] = test: Effect on metabolic changes in human MGC-803 cells assessed as down regulation of NAD+ level at 4 uM by 1H-NMR analysis; type: functional, cell-based
MGC-803 [25] = test: Effect on metabolic changes in human MGC-803 cells assessed as down regulation of GSH level at 4 uM by 1H-NMR analysis; type: functional, cell-based
MGC-803 [26] = test: Effect on metabolic changes in human MGC-803 cells assessed as down regulation of creatine level at 4 uM by 1H-NMR analysis; type: functional, cell-based
MGC-803 [27] = test: Effect on metabolic changes in human MGC-803 cells assessed as down regulation of choline phosphate level at 4 uM by 1H-NMR analysis; type: functional, cell-based
MGC-803 [28] = test: Effect on metabolic changes in human MGC-803 cells assessed as down regulation of aspartic acid level at 4 uM by 1H-NMR analysis; type: functional, cell-based
MGC-803 [29] = test: Effect on metabolic changes in human MGC-803 cells assessed as down regulation of AMP level at 4 uM by 1H-NMR analysis; type: functional, cell-based
MGC-803 [30] = test: Effect on metabolic changes in human MGC-803 cells assessed as down regulation of ADP level at 4 uM by 1H-NMR analysis; type: functional, cell-based

With `COC(=O)CCCCn1c2c(c3ccc(OC)cc31)CCN=C2C` the Activity (HCT-116 [1]) was “Active”, the Activity (MGC-803 [2]) was “Active” and the Activity (MCF7 [3]) was “Active”.
With `COC(=O)CCCn1c2c(c3ccc(OC)cc31)CCN=C2C` the Activity (HCT-116 [1]) was “Active”, the Activity (MGC-803 [2]) was “Active” and the Activity (MCF7 [3]) was “Active”.
With `COc1ccc2c3c(n(CCCCCn4c5cc(OC)ccc5c5ccnc(C)c54)c2c1)C(C)=NCC3` the viability at 50 µM (HCT-116 [4]) was less than 10%, the viability at 50 µM (MGC-803 [5]) was less than 10% and the viability at 50 µM (MCF7 [6]) was less than 10%. The IC50 (HCT-116 [7]) was 3.84 µM, the IC50 (MGC-803 [8]) was 5.26 µM and the IC50 (MCF7 [9]) was 8.67 µM. For the same compound, the IC50 at 24 h [10] was 47.6 µM, the Activity (MGC-803 [11]) was 25.5% and the Activity (MGC-803 [12]) was 20.76%. For the same compound, the Activity (MGC-803 [13]) was “Active”, the Activity (MGC-803 [14]) was “Active” and the Activity (MGC-803 [15]) was 44.14%. For the same compound, the Activity (MGC-803 [16]) was 33.65%, the Activity (MGC-803 [17]) was “Active” and the Activity [18] was 0.56%. The Activity [19] was 0.33%, the Activity [20] was 0.02% and the Activity (MGC-803 [21]) was “Active”. The Activity (MGC-803 [22]) was “Active”, the Activity (MGC-803 [23]) was “Active” and the Activity (MGC-803 [24]) was “Active”. For the same compound, the Activity (MGC-803 [25]) was “Active”, the Activity (MGC-803 [26]) was “Active” and the Activity (MGC-803 [27]) was “Active”. The Activity (MGC-803 [28]) was “Active”, the Activity (MGC-803 [29]) was “Active” and the Activity (MGC-803 [30]) was “Active”.
In the case of `COc1ccc2c3c(n(Cc4ccccc4)c2c1)C(C)=NCC3`, the Activity (HCT-116 [1]) is reported as “Active”, the Activity (MGC-803 [2]) is reported as “Active” and the Activity (MCF7 [3]) is reported as “Active”.
In the case of `COc1ccc2c3c(n(Cc4cccc(F)c4)c2c1)C(C)=NCC3`, the Activity (HCT-116 [1]) is reported as “Active”, the Activity (MGC-803 [2]) is reported as “Active” and the Activity (MCF7 [3]) is reported as “Active”.
In the case of `COc1ccc2c3c(n(Cc4ccc(C)cc4)c2c1)C(C)=NCC3`, the Activity (HCT-116 [1]) is reported as “Active”, the Activity (MGC-803 [2]) is reported as “Active” and the Activity (MCF7 [3]) is reported as “Active”.
For `COc1ccc2c3c(n(CCc4ccc(F)cc4)c2c1)C(C)=NCC3`, the Activity (HCT-116 [1]) was “Active”, the Activity (MGC-803 [2]) was “Active” and the Activity (MCF7 [3]) was “Active”.
With `COC(=O)CCn1c2c(c3ccc(OC)cc31)CCN=C2C` the Activity (HCT-116 [1]) was “Active”, the Activity (MGC-803 [2]) was “Active” and the Activity (MCF7 [3]) was “Active”.
In the case of `COc1ccc2c3ccnc(C)c3n(CCCCCn3c4cc(OC)ccc4c4ccnc(C)c43)c2c1`, the viability at 50 µM (HCT-116 [4]) is reported as roughly 31%, the viability at 50 µM (MGC-803 [5]) is reported as roughly 59% and the viability at 50 µM (MCF7 [6]) is reported as roughly 35%.
For `C=CCn1c2c(c3ccc(OC)cc31)CCN=C2C`, the Activity (HCT-116 [1]) was “Active”, the Activity (MGC-803 [2]) was “Active” and the Activity (MCF7 [3]) was “Active”.
In the case of `COc1ccc2c3c(n(CCCCBr)c2c1)C(C)=NCC3`, the Activity (HCT-116 [1]) is reported as “Active”, the Activity (MGC-803 [2]) is reported as “Active” and the Activity (MCF7 [3]) is reported as “Active”.
With `COc1ccc2c3c(n(CCCCCBr)c2c1)C(C)=NCC3` the Activity (HCT-116 [1]) was “Active”, the Activity (MGC-803 [2]) was “Active” and the Activity (MCF7 [3]) was “Active”.
